Test system: anti-morphine-heroin serum antibodies
Experiment: competitive immunoenzymatic ELISA for antibody specificity
Type: binding, rat
Conditions: competitive antigen, nM-μM range

| Compound | cross-recognition by anti-morphine-heroin serum antibodies |
| --- | --- |
| CN1CC[C@]23c4c5ccc(O)c4O[C@H]2[C@@H](O[C@@H]2O[C@H](C(=O)O)[C@@H](O)[C@H](O)[C@H]2O)C=C[C@H]3[C@H]1C5 [morphine-6-glucuronide] | cross-recognize |
| CN1CC[C@]23c4c5ccc(O[C@@H]6O[C@H](C(=O)O)[C@@H](O)[C@H](O)[C@H]6O)c4O[C@H]2[C@@H](O)C=C[C@H]3[C@H]1C5 [morphine-3-glucuronide] | cross-recognize |
| β-endorphin (YGGFMTSEKSQTPLVTLFKNAIIKNAYKKGE; Beta-endorphin; UniProt P01189 237-267, looked up) [endogenous opioid peptide produced in the CNS of mammals] | not able to cross-recognize |
| O=C1CC[C@@]2(O)[C@H]3Cc4ccc(O)c5c4[C@@]2(CCN3CC2CC2)[C@H]1O5 [naltrexone] | no cross-recognition |

Reference: US8357375B2, “Process for the preparation and use of a bivalent vaccine against morphine-heroine addiction” (Instituto Nacional de Psiquiatria Ramon de la Fuente Muniz, priority 2004, dated 2013)
